Data: ChEMBL document CHEMBL5137100, “N-Alkyl-2-Quinolonopyrones Demonstrate Antimicrobial Activity against ESKAPE Pathogens Including Staphylococcus aureus” (2022)
≈ marks a conversion by molar mass, not a printed value.

How the values were obtained:
Assay type in all cases: functional
Conditions in all cases: time 18-20 hrs
Staphylococcus aureus [1] = experiment: Antibacterial activity against methicillin-sensitive Staphylococcus aureus GP-001 ATCC 25923 assessed as reduction in bacterial growth in CAMHB incubated for 18 to 20 hrs by broth dilution method
Staphylococcus aureus [2] = experiment: Antibacterial activity against methicillin-resistant Staphylococcus aureus GP-020 ATCC 43300 assessed as reduction in bacterial growth in CAMHB incubated for 18 to 20 hrs by broth dilution method
Staphylococcus aureus [3] = experiment: Antibacterial activity against methicillin-resistant Staphylococcus aureus GP-021 ATCC 33591 assessed as reduction in bacterial growth in CAMHB incubated for 18 to 20 hrs by broth dilution method
Enterococcus sp. [4] = experiment: Antibacterial activity against Enterococcus sp. GP-024 ATCC 35667 assessed as reduction in bacterial growth in CAMHB incubated for 18 to 20 hrs by broth dilution method
Staphylococcus aureus [5] = experiment: Antibacterial activity against daptomycin and methicillin resistant Staphylococcus aureus GP-036 assessed as reduction in bacterial growth in CAMHB incubated for 18 to 20 hrs by broth dilution method
Enterococcus sp. [6] = experiment: Antibacterial activity against vancomycin resistant Enterococcus sp. GP-026 ATCC 700221 assessed as reduction in bacterial growth in CAMHB incubated for 18 to 20 hrs by broth dilution method
Staphylococcus aureus [7] = experiment: Antibacterial activity against vancomycin intermediate and methicillin resistant Staphylococcus aureus GP-035 ATCC 700699 assessed as reduction in bacterial growth in CAMHB incubated for 18 to 20 hrs by broth dilution method
[8] = system: Staphylococcus epidermidis; experiment: Antibacterial activity against Staphylococcus epidermidis GP-017 ATCC 12228 assessed as reduction in bacterial growth in CAMHB incubated for 18 to 20 hrs by broth dilution method
[9] = system: Staphylococcus epidermidis; experiment: Antibacterial activity against Staphylococcus epidermidis GP-033 NRS 60 assessed as reduction in bacterial growth in CAMHB incubated for 18 to 20 hrs by broth dilution method

SMILES | MIC80 (Staphylococcus aureus [1]) [µg/mL] | MIC80 (Staphylococcus aureus [2]) [µg/mL] | MIC80 (Staphylococcus aureus [3]) [µg/mL] | MIC80 (Enterococcus sp. [4]) [µg/mL] | MIC80 (Staphylococcus aureus [5]) [µg/mL] | MIC80 (Enterococcus sp. [6]) [µg/mL] | MIC80 (Staphylococcus aureus [7]) [µg/mL] | MIC80 [8] [µg/mL] | MIC80 [9] [µg/mL]
CCCCCCCn1c(=O)c2c(O)cc(=O)oc2c2cc(CCCCCC)ccc21 | 256 (≈ 622 µM) | 256 (≈ 622 µM) | > 256 | – | – | – | – | – | –
CCCCCCCCCn1c(=O)c2c(O)cc(=O)oc2c2ccccc21 | 4 (≈ 11.3 µM) | 2 (≈ 5.63 µM) | 2 (≈ 5.63 µM) | > 4 | 1 (≈ 2.81 µM) | 4 (≈ 11.3 µM) | 2 (≈ 5.63 µM) | 2 (≈ 5.63 µM) | 2 (≈ 5.63 µM)
CCCCCCCn1c(=O)c2c(O)cc(=O)oc2c2cc(Cl)ccc21 | 8 (≈ 22.1 µM) | 1 (≈ 2.76 µM) | > 128 | > 128 | 1 (≈ 2.76 µM) | 64 (≈ 177 µM) | 128 (≈ 354 µM) | 1 (≈ 2.76 µM) | 8 (≈ 22.1 µM)
CCCCCCCn1c(=O)c2c(O)cc(=O)oc2c2cc(C)ccc21 | > 128 | 1 (≈ 2.93 µM) | 64 (≈ 187 µM) | 128 (≈ 375 µM) | > 128 | 32 (≈ 93.7 µM) | > 128 | 16 (≈ 46.9 µM) | > 64
CCCCCCCn1c(=O)c2c(O)cc(=O)oc2c2cc(F)ccc21 | 8 (≈ 23.2 µM) | 2 (≈ 5.79 µM) | 4 (≈ 11.6 µM) | > 64 | 2 (≈ 5.79 µM) | 32 (≈ 92.7 µM) | 4 (≈ 11.6 µM) | 4 (≈ 11.6 µM) | 8 (≈ 23.2 µM)
CCCCCCCCCCn1c(=O)c2c(O)cc(=O)oc2c2ccccc21 | > 64 | 4 (≈ 10.8 µM) | > 64 | > 64 | > 64 | 0.5 (≈ 1.35 µM) | > 64 | 4 (≈ 10.8 µM) | > 64
CCCCCCCn1c(=O)c2c(O)cc(=O)oc2c2ccccc21 | 8 (≈ 24.4 µM) | 4 (≈ 12.2 µM) | 8 (≈ 24.4 µM) | > 128 | 4 (≈ 12.2 µM) | 16 (≈ 48.9 µM) | 8 (≈ 24.4 µM) | 4 (≈ 12.2 µM) | 4 (≈ 12.2 µM)
CCCCCCCn1c(=O)c2c(O)cc(=O)oc2c2cc(OC)ccc21 | 8 (≈ 22.4 µM) | ≤ 8 | ≤ 8 | – | – | – | – | – | –
CCCCCCCCn1c(=O)c2c(O)cc(=O)oc2c2ccccc21 | 8 (≈ 23.4 µM) | 2 (≈ 5.86 µM) | 4 (≈ 11.7 µM) | > 128 | 4 (≈ 11.7 µM) | 1 (≈ 2.93 µM) | 4 (≈ 11.7 µM) | 4 (≈ 11.7 µM) | 1 (≈ 2.93 µM)
CCCCCCCn1c(=O)c2c(O)cc(=O)oc2c2cc(C(C)(C)C)ccc21 | 2 (≈ 5.22 µM) | 1 (≈ 2.61 µM) | 2 (≈ 5.22 µM) | > 128 | 1 (≈ 2.61 µM) | 4 (≈ 10.4 µM) | 1 (≈ 2.61 µM) | 2 (≈ 5.22 µM) | 0.25 (≈ 0.652 µM)
CCCCCCCn1c(=O)c2c(O)cc(=O)oc2c2c(C)cc(C)cc21 | > 256 | > 256 | > 256 | – | – | – | – | – | –
CCCCCCn1c(=O)c2c(O)cc(=O)oc2c2ccccc21 | 16 (≈ 51.1 µM) | 8 (≈ 25.5 µM) | 16 (≈ 51.1 µM) | > 64 | 8 (≈ 25.5 µM) | 8 (≈ 25.5 µM) | 8 (≈ 25.5 µM) | 8 (≈ 25.5 µM) | 2 (≈ 6.38 µM)
